We go through one molecule from ChEMBL document CHEMBL4011612, “4-Anilino-pyrimidine, novel aldosterone synthase (CYP11B2) inhibitors bearing pyrimidine structures” (Bioorg Med Chem Lett, 2017).

In brackets after ≈: the same amount, converted by molar mass.

One data set concerns Liver. Briefly: Metabolic stability in human liver microsomes. In kind it is ADME, microsome. For orientation: Microsomes from liver hold many membrane-bound enzymes, among them those of drug oxidation.
For the next data set, the target named is CYP2C9 (Homo sapiens, UniProt P11712). Put plainly: Inhibition of CYP2C9 (unknown origin) at 10 uM. In kind it is ADME.
Sequence of CYP2C9 (P11712 whole entry): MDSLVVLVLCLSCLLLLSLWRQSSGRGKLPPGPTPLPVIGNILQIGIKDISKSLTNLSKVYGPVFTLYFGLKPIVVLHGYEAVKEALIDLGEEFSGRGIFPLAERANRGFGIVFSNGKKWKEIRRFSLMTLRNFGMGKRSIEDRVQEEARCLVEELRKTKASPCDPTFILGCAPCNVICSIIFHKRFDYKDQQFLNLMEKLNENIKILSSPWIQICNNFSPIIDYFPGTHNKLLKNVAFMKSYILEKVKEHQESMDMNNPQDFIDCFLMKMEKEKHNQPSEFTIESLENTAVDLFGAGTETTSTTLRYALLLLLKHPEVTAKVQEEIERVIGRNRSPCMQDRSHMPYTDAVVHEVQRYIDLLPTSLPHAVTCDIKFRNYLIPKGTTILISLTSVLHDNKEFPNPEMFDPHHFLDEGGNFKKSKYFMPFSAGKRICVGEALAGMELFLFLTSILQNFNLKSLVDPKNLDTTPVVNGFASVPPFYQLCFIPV
The target in data set [1] is T1, Cytochrome P450 11B2, mitochondrial (Mus musculus, UniProt P15539).
T1 sequence (P15539 whole entry): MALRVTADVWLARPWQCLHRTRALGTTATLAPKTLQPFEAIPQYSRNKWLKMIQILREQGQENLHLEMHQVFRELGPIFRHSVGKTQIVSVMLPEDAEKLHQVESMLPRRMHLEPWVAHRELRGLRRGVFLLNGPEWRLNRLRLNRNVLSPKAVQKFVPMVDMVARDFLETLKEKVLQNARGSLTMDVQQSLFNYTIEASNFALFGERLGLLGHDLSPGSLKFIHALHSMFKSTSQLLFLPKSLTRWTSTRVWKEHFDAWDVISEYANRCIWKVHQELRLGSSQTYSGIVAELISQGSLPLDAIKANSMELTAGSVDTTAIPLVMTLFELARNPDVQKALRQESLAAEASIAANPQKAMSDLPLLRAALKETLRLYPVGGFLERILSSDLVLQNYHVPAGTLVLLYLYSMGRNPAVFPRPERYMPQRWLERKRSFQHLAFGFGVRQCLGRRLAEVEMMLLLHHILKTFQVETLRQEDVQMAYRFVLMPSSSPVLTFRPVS
Description: Inhibition of mouse CYP11B2 expressed in HEK293 cells using deoxycorticosterone as substrate pretreated for 1 hr followed by substrate addition after 2 hrs by HTRF assay

Data set [2] can be described thus: Solubility of the compound at pH 6.8. The format is physicochemical. To be noted: buffer.
The target in data set [3] is T2, Cytochrome P450 11B2, mitochondrial (Homo sapiens, UniProt P19099).
T2 sequence (P19099 whole entry): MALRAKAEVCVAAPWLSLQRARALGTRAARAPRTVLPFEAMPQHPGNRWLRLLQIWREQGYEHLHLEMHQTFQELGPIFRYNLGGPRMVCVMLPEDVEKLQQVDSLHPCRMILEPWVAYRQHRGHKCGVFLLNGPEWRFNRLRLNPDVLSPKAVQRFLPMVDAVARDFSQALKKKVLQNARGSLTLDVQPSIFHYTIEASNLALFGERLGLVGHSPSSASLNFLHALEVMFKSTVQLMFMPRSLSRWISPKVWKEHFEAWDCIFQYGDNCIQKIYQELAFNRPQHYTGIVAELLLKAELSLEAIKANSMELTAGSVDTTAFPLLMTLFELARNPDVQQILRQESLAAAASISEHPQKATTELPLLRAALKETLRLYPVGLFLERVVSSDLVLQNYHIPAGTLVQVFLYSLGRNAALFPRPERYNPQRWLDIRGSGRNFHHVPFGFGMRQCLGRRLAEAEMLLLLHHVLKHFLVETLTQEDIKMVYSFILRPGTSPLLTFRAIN
Description: Inhibition of human CYP11B2 expressed in HEK293A cells using deoxycorticosterone as substrate pretreated for 1 hr followed by substrate addition measured after 1 hr by HTRF assay

Data set [4] in a line: Solubility of the compound at pH 1.2. In kind it is physicochemical. Conditions: buffer.
Data set [5] in a line: Total AUC in cynomolgus monkey at 3 mg/kg, po administered as single dose. The format is ADME, organism-based, Macaca fascicularis. Details: dose 3 mg/kg, time AUCmax, route oral. To be noted: in vivo.
A further data set has as its target CYP2D6 (Homo sapiens, UniProt P10635). Put plainly: Inhibition of CYP2D6 (unknown origin) at 10 uM. The format is ADME.
Data set [6] in a line: Plasma protein binding in mouse. In kind it is ADME, cell-free. Conditions: read-out: PPB (converted).
Data set [7] has as its target T3, Cytochrome P450 11B1, mitochondrial (Homo sapiens, UniProt P15538).
T3 sequence (P15538 whole entry): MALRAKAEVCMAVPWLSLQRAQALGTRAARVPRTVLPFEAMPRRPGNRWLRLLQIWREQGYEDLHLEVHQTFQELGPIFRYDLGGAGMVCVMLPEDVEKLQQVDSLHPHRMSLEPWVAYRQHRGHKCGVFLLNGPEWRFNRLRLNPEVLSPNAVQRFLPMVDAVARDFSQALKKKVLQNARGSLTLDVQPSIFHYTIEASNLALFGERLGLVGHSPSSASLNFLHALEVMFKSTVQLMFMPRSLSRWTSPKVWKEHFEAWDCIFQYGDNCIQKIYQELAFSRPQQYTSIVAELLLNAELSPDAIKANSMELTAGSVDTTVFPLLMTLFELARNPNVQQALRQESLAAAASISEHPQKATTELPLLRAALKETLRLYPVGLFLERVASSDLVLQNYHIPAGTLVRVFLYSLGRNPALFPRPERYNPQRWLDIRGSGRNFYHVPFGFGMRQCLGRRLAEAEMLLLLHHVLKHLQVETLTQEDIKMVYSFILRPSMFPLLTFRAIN
Put plainly: Inhibition of human CYP11B1 expressed in HEK293A cells. In kind it is ADME, cell-based, HEK293.

The next data set addresses T4, CYP19 (aromatase) (Homo sapiens, UniProt P11511).
T4 sequence (P11511 whole entry): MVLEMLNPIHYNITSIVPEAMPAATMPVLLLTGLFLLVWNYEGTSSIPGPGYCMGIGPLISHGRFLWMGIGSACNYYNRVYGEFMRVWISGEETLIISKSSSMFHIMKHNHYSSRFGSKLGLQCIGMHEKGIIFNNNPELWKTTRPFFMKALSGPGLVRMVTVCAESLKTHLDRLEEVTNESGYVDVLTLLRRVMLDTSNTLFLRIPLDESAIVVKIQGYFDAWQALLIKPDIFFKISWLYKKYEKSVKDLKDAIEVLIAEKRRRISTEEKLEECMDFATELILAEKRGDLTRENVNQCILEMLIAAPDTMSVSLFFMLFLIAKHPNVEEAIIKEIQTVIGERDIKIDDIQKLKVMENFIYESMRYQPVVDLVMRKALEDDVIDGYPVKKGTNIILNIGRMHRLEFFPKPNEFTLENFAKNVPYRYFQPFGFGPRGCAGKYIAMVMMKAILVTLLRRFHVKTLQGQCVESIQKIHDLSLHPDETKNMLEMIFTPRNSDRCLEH
Briefly: Inhibition of CYP19 (unknown origin) at 1 uM.

Another data set addresses T5, CYP1A2 (Homo sapiens, UniProt P05177).
T5 sequence (P05177 whole entry): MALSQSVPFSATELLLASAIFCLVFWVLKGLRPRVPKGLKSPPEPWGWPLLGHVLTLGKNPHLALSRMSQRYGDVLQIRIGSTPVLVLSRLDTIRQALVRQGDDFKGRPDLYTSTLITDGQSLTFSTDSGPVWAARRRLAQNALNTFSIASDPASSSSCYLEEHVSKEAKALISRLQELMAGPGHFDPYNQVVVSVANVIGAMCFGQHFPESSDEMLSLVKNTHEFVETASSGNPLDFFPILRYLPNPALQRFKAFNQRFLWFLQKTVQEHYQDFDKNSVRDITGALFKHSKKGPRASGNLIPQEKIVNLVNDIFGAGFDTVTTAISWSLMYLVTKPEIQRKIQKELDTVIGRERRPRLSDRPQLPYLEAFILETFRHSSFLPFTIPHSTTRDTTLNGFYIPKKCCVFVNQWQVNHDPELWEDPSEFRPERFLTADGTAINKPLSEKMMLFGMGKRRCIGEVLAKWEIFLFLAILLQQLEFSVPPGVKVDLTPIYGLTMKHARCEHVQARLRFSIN
Put plainly: Inhibition of CYP1A2 (unknown origin) at 10 uM. In kind it is ADME.

Data set [8] is described as follows: Half life in cynomolgus monkey at 3 mg/kg, po administered as single dose. In kind it is ADME, organism-based, Macaca fascicularis. To be noted: in vivo.
A further data set has as its target CYP3A4 (Homo sapiens, UniProt P08684). Briefly: Inhibition of CYP3A4 (unknown origin) at 10 uM.
Data set [9] is described as follows: Tmax in cynomolgus monkey at 3 mg/kg, po administered as single dose. In kind it is ADME, organism-based, Macaca fascicularis. To be noted: in vivo.
Data set [10] is described as follows: Cmax in cynomolgus monkey at 3 mg/kg, po administered as single dose. The format is ADME, organism-based, Macaca fascicularis. Details: dose 3 mg/kg, route oral. To be noted: in vivo.

Sequence of CYP3A4 (P08684 whole entry): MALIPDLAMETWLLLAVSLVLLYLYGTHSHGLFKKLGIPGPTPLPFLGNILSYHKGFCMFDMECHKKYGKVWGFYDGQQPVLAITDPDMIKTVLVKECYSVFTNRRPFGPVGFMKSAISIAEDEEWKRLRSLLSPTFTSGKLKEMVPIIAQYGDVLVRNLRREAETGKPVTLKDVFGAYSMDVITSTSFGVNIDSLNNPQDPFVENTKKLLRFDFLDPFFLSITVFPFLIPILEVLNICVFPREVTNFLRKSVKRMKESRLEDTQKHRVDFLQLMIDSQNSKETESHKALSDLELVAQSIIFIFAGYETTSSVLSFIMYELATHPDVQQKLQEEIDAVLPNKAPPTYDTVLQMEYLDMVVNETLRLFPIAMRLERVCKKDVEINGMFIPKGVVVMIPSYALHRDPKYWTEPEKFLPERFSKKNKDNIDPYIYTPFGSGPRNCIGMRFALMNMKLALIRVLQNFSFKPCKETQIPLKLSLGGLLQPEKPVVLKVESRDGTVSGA
Sequence of CYP2D6 (P10635 whole entry): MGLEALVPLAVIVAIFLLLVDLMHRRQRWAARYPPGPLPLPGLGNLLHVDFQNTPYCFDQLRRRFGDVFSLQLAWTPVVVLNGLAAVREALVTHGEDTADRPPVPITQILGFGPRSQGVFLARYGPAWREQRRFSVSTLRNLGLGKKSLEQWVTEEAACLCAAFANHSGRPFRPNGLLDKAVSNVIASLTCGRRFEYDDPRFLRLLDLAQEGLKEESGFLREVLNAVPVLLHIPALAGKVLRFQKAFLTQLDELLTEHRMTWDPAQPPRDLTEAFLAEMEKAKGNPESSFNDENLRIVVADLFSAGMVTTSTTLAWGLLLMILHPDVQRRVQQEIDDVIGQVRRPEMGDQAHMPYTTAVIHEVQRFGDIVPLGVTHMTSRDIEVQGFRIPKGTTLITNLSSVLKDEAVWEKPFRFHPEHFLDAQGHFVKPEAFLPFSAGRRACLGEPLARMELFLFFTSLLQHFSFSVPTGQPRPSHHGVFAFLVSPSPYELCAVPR

As a reminder, the inhibition is the relative decrease from the control value, in per cent. What is called IC50 is the concentration needed to halve the response being measured. For orientation: solubility means the dissolved amount per volume that the medium holds. The term AUC denotes concentration integrated over time. Usually half-life stands for the time needed for the level to fall by half in the phase considered. What is called Tmax is the time from dosing to the highest level. One may read the Cmax as the peak of the concentration-time curve. As to `CS(=O)(=O)N1CCC(C(O)(c2cncnc2Nc2ccc(F)cc2)C(F)(F)F)CC1` (racemic), the Stability with Liver is 100%. Moreover, the inhibition at 10 µM was 3.4% against CYP2C9, 5.8% on CYP2D6, under 0% against CYP1A2 and 4.1% at CYP3A4. For the same molecule, the 50% inhibitory concentration (IC50) in [1] is 10 nM; in data set [3], 4 nM; in data set [7], 2 nM. The solubility in data set [2] was determined as 260 µg/mL (≈ 580 µM); in data set [4] it was 860 µg/mL (≈ 1920 µM). Also, in [5], the exposure (AUC) is 3300 ng·h/mL. The fraction unbound in [6] is 0.185. Also, the inhibition at 1 µM against CYP19 (aromatase) came to 16%. Also, the half-life in [8] is 2.31 h. Besides, in [9], the time to peak (Tmax) was determined as 2.67 h. In [10], this molecule registered a Cmax of 515 ng/mL.
